Test results from ChEMBL document CHEMBL4145514, “Unexplored antifungal activity of linear battacin lipopeptides against planktonic and mature biofilms of C. albicans” (Eur J Med Chem, 2018).
≈ marks a conversion by molar mass, not a printed value. Calls of active or inactive are those of the source. No cut-off for these calls is given here. Square brackets hold non-standard residues; d marks the D form. Peptide text beside a SMILES is read from it. * marks the point of attachment. ξ: configuration not given here. Hexanoyl(4ξ-Me) = CCC(C)CCC(=O)*; Myristoyl = CCCCCCCCCCCCCC(=O)*; dDab = NCC[C@@H](N)C(=O)O; Dab = NCC[C@H](N)C(=O)O

Assays:
Candida albicans [1] = assay: Antifungal activity against Candida albicans SC5314 after 48 hrs; type: functional; conditions: SC5314, 48 h
Candida albicans [2] = assay: Synergistic antifungal activity against Candida albicans SC5314 assessed as FIC index after 48 hrs in presence of 400 nmol AmB; type: functional
Candida albicans [3] = assay: Ratio of MIC for Candida albicans SC5314 to MIC for Candida albicans SC5314 in presence of 400 nmol AmB; type: functional
Candida albicans [4] = assay: Synergistic antifungal activity against Candida albicans SC5314 after 48 hrs in presence of 800 nmol AmB; type: functional; conditions: SC5314, 48 h
Candida albicans [5] = assay: Synergistic antifungal activity against Candida albicans SC5314 assessed as FIC index after 48 hrs in presence of 800 nmol AmB; type: functional
Candida albicans [6] = assay: Ratio of MIC for Candida albicans SC5314 to MIC for Candida albicans SC5314 in presence of 800 nmol AmB; type: functional
Candida albicans [7] = assay: Synergistic antifungal activity against Candida albicans SC5314 after 48 hrs in presence of 400 nmol AmB; type: functional; conditions: SC5314, 48 h
Lipid bilayer = assay: Disruption of phosphatidylcholine/ phosphatidylinositol/phosphatidylethanolamine membrane at 200 uM by colorimetric assay
Candida albicans [8] = assay: Induction of morphological changes in Candida albicans SC5314 assessed as disruption of fungal cell membranes at 10 times MIC after 45 mins by Uranyl acetate/Lead citrate staining based transmission electron microscopic analysis; type: functional, organism-based
Candida albicans [9] = assay: Induction of eradication of 24 hrs old preformed Candida albicans SC5314 biofilm after 24 to 48 hrs by XTT assay; type: functional
[10] = Haemolytic activity in mouse RBC at 1 mM incubated for 1 hr relative to control; type: ADME, cell-based, Erythrocyte; conditions: mouse red blood cells (erythrocytes), read-out: Activity
Candida albicans [11] = assay: Induction of ROS generation in Candida albicans SC5314 at 0.2 to 100 uM after 24 to 48 hrs in presence of ascorbic acid by DCF-DA staining based fluorescence assay; type: functional, organism-based
Candida albicans [12] = assay: Induction of morphological changes in Candida albicans SC5314 assessed as formation of abnormal curvature of cell membranes at MIC after 45 mins by Uranyl acetate/Lead citrate staining based transmission electron microscopic analysis; type: functional, organism-based
Candida albicans [13] = assay: Induction of morphological changes in Candida albicans SC5314 assessed as necrosis of cytoplasm at 10 times MIC after 45 mins by Uranyl acetate/Lead citrate staining based transmission electron microscopic analysis; type: functional, organism-based
Candida albicans [14] = assay: Antibiofilm activity against Candida albicans SC5314 incubated for overnight by XTT assay; type: functional
Candida albicans [15] = assay: Induction of morphological changes in Candida albicans SC5314 assessed as formation of distorted shape cells at MIC after 45 mins by Uranyl acetate/Lead citrate staining based transmission electron microscopic analysis; type: functional, organism-based
Candida albicans [16] = assay: Ratio of MBEC50 for 24 hrs old preformed Candida albicans SC5314 biofilm to MIC for Candida albicans SC5314; type: functional
Candida albicans [17] = assay: Induction of ROS generation in Candida albicans SC5314 after 24 to 48 hrs by DCF-DA staining based fluorescence assay; type: functional, organism-based
Candida albicans [18] = assay: Induction of eradication of 48 hrs old preformed Candida albicans SC5314 biofilm at 62.5 uM after 24 to 48 hrs by XTT assay; type: functional, organism-based
Candida albicans [19] = assay: Induction of morphological changes in Candida albicans SC5314 assessed as disruption of fungal cell walls at 10 times MIC after 45 mins by Uranyl acetate/Lead citrate staining based transmission electron microscopic analysis; type: functional, organism-based
Candida albicans [20] = assay: Potency index, ratio of MIC for polymyxin B to compound MIC for antifungal activity against Candida albicans SC5314; type: functional

SMILES	MIC (Candida albicans [1])	fractional inhibitory concentration index (FICI) (Candida albicans [2])	Ratio (Candida albicans [3])	MIC (Candida albicans [4])	fractional inhibitory concentration index (FICI) (Candida albicans [5])	Ratio (Candida albicans [6])	MIC (Candida albicans [7])	Activity (Lipid bilayer)	also measured
CC(C)C[C@H](NC(=O)[C@H](CCN)NC(=O)[C@H](CCN)NC(=O)[C@@H](Cc1ccccc1)NC(=O)[C@H](CC(C)C)NC(=O)[C@H](CCN)NC(=O)[C@H](CCN)NC(=O)[C@@H](CCN)NC(=O)OCC1c2ccccc2-c2ccccc21)C(N)=O	12.5 µM (≈ 13.9 µg/mL)								
CCC(C)CCC(=O)N[C@H](CCN)C(=O)N[C@@H](CCN)C(=O)N[C@@H](CCN)C(=O)N[C@@H](CC(C)C)C(=O)N[C@H](Cc1c[nH]c2ccccc12)C(=O)N[C@@H](CCN)C(=O)N[C@@H](CCN)C(=O)N[C@@H](CC(C)C)C(N)=O (some centres undefined)	25 µM (≈ 26.1 µg/mL)								
CC(C)C[C@H](NC(=O)[C@H](CCN)NC(=O)[C@H](CCN)NC(=O)[C@@H](Cc1ccccc1)NC(=O)[C@H](CC(C)C)NC(=O)[C@H](CCN)NC(=O)[C@H](CCN)NC(=O)[C@H](N)CCN)C(N)=O (H-[dDab][Dab][Dab]L[dF][Dab][Dab]L-NH2)	> 100 µM								
CCC(C)CCC(=O)N[C@H](CCN)C(=O)N[C@@H](CCN)C(=O)N[C@@H](CCN)C(=O)N[C@@H](CC(C)C)C(=O)N[C@H](Cc1ccccc1)C(=O)N[C@@H](CCN)C(=O)N[C@@H](CCN)C(=O)N[C@@H](CC(C)C)C(=O)N[C@H](CCN)C(=O)N[C@@H](CCN)C(=O)N[C@@H](CCN)C(=O)N[C@@H](CC(C)C)C(=O)N[C@H](Cc1ccccc1)C(=O)N[C@@H](CCN)C(=O)N[C@@H](CCN)C(=O)N[C@@H](CC(C)C)C(N)=O (some centres undefined)	12.5 µM (≈ 23.5 µg/mL)	2.24	4	1.56 µM	1.12	8 - 32	3.12 µM		
CCCCC(=O)N[C@H](CCN)C(=O)N[C@@H](CCN)C(=O)N[C@@H](CCN)C(=O)N[C@@H](CC(C)C)C(=O)N[C@H](Cc1ccccc1)C(=O)N[C@@H](CCN)C(=O)N[C@@H](CCN)C(=O)N[C@@H](CC(C)C)C(N)=O	> 100 µM							inactive	
CCCCCCCCCCCCCC(=O)N[C@H](CCN)C(=O)N[C@@H](CCN)C(=O)N[C@@H](CCN)C(=O)N[C@@H](CC(C)C)C(=O)N[C@H](Cc1ccccc1)C(=O)N[C@@H](CCN)C(=O)N[C@@H](CCN)C(=O)N[C@@H](CC(C)C)C(N)=O (Myristoyl-[dDab][Dab][Dab]L[dF][Dab][Dab]L-NH2)	12.5 µM (≈ 13.8 µg/mL)								
CCC(=O)N[C@H](CCN)C(=O)N[C@@H](CCN)C(=O)N[C@@H](CCN)C(=O)N[C@@H](CC(C)C)C(=O)N[C@H](Cc1ccccc1)C(=O)N[C@@H](CCN)C(=O)N[C@@H](CCN)C(=O)N[C@@H](CC(C)C)C(N)=O	> 100 µM							inactive	
CC(=O)N[C@H](CCN)C(=O)N[C@@H](CCN)C(=O)N[C@@H](CCN)C(=O)N[C@@H](CC(C)C)C(=O)N[C@H](Cc1ccccc1)C(=O)N[C@@H](CCN)C(=O)N[C@@H](CCN)C(=O)N[C@@H](CC(C)C)C(N)=O	> 100 µM							inactive	
CCC(C)CCC(=O)N[C@H](CCN)C(=O)N[C@@H](CCN)C(=O)N[C@@H](CCN)C(=O)N[C@@H](CC(C)C)C(=O)N[C@H](Cc1ccccc1)C(=O)N[C@@H](CCN)C(=O)N[C@@H](CCN)C(=O)N[C@@H](CC(C)C)C(=O)N[C@H](CCN)C(=O)N[C@@H](CCN)C(=O)N[C@@H](CCN)C(=O)N[C@@H](CC(C)C)C(=O)N[C@H](Cc1ccccc1)C(=O)N[C@@H](CCN)C(=O)N[C@@H](CCN)C(=O)N[C@@H](CC(C)C)C(=O)N[C@H](CCN)C(=O)N[C@@H](CCN)C(=O)N[C@@H](CCN)C(=O)N[C@@H](CC(C)C)C(=O)N[C@H](Cc1ccccc1)C(=O)N[C@@H](CCN)C(=O)N[C@@H](CCN)C(=O)N[C@@H](CC(C)C)C(N)=O (some centres undefined)	6.25 µM (≈ 17.2 µg/mL)	1.25	4	0.78 µM	0.62	8 - 32	1.56 µM		Activity (Candida albicans [8]): Active; MBEC50 (Candida albicans [9]): 25 µM; hemolysis at 1 h, 1000 µM [10]: 21%; Activity (Candida albicans [11]): inactive; Activity (Candida albicans [12]): Active; Activity (Candida albicans [13]): Active; MBIC50 (Candida albicans [14]): 6.25 µM; Activity (Candida albicans [15]): Active; Ratio (Candida albicans [16]): 4; Activity (Candida albicans [17]): Dose-dependent effect; Activity (Candida albicans [18]): Active; Activity (Candida albicans [19]): Active
CCC(C)CCC(=O)N[C@H](CCN)C(=O)N[C@@H](CCN)C(=O)N[C@@H](CCN)C(=O)N[C@@H](CC(C)C)C(=O)N[C@H](Cc1ccccc1)C(=O)N[C@@H](CCN)C(=O)N[C@@H](CCN)C(=O)N[C@@H](CC(C)C)C(N)=O (stereo partly drawn) ({Hexanoyl(4ξ-Me)}-[dDab][Dab][Dab]L[dF][Dab][Dab]L-NH2)	50 µM (≈ 50.2 µg/mL)	8.26	4	1.56 µM	1.03	8 - 32	12.5 µM		Ratio (Candida albicans [20]): 2
